Assay: recombinant UMI read abundance after kanamycin selection (control-corrected) (log10(CPM+1)); higher = more efficient recombination; extreme values may be limits of the assay; sequences stand for … in AGTGCAGAGAAAATCGGCCAGTTTTCTCTGCCTGCAGTCCGCATGCCGTGGGACCCCTTGGGTTCTAACCTGTTGCCTAGATTTATGCAGCGGACTGCCTTTCTCCCAAAGTGATAAACCGG…AGGTTGGTTTCACT; site = the 11-nt donor
Outline: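 After plating on IPTG (0.07 mM) plus kanamycin, or unselected, in two replicates, recombinant UMIs were PCR-amplified across the donor–target junction and sequenced. The cells were Escherichia coli co-electroporated with a UMI-tagged donor and donor-binding-loop pair library and a target plasmid with a fixed target and T7-inducible IS621 bridge recombinase. Values are log10(CPM+1), with CPM averaged over replicates and scaled by control-derived factors.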
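Also: IS621 bridge recombinase in Escherichia coli cells against a fixed T5 target plasmid.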

Sequence	recombinant UMI read abundance (log10)
TACTTGACATGGACCGGTTTTCCCGGTAATCCGTATTTGCT (site TCCTTGACTAG)	0.255
TACTTGACATGGACCGGTTTTCCCGGTAATCCGTATTTGCT (site TGCTTGACTAG)	0.0612
TACTTGACATGGACCGGTTTTCCCGGTAATCCGTATTTGCT (site TTCTTGACTAG)	0
TACTTGCCATGGACCGGTTTTCCCGGTAATCCGTATTTGCT (site TACTTGACTAG)	0.00966
TACTTGCCATGGACCGGTTTTCCCGGTAATCCGTATTTGCT (site TACTTGCCTAG)	0.597
TACTTGCCATGGACCGGTTTTCCCGGTAATCCGTATTTGCT (site TACTTGGCTAG)	0.00743
TACTTGCCATGGACCGGTTTTCCCGGTAATCCGTATTTGCT (site TACTTGTCTAG)	0.383
TACTTGGCATGGACCGGTTTTCCCGGTAATCCGTATTTGTG (site TAATTGGCTCA)	0.0141
TACTTGGCATGGACCGGTTTTCCCGGTAATCCGTATTTGTG (site TACTTGGCTCA)	0.305
TACTTGGCATGGACCGGTTTTCCCGGTAATCCGTATTTGTG (site TAGTTGGCTCA)	0.017
TACTTGGCATGGACCGGTTTTCCCGGTAATCCGTATTTGTG (site TATTTGGCTCA)	0.00802
TACTTGTCATGGACCGGTTTTCCCGGTAATCCGTATTTGCT (site TACTTGACTAG)	0
TACTTGTCATGGACCGGTTTTCCCGGTAATCCGTATTTGCT (site TACTTGCCTAG)	0.649
TACTTGTCATGGACCGGTTTTCCCGGTAATCCGTATTTGCT (site TACTTGGCTAG)	0.00306
TACTTGTCATGGACCGGTTTTCCCGGTAATCCGTATTTGCT (site TACTTGTCTAG)	1.51
TACTTTCCATGGACCGGTTTTCCCGGTAATCCGTATTTGCC (site TACTTTCCTGG)	0
TAGAAAACATGGACCGGTTTTCCCGGTAATCCGTATTTGCA (site TAGAAAACTTG)	1.54
TAGAAAACATGGACCGGTTTTCCCGGTAATCCGTATTTGCA (site TAGAACACTTG)	1.57
TAGAAAACATGGACCGGTTTTCCCGGTAATCCGTATTTGCA (site TAGAAGACTTG)	0.00894
TAGAAAACATGGACCGGTTTTCCCGGTAATCCGTATTTGCA (site TAGAATACTTG)	0
TAGAAGACATGGACCGGTTTTCCCGGTAATCCGTATTTGCA (site TAGAAAACTTG)	0
TAGAAGACATGGACCGGTTTTCCCGGTAATCCGTATTTGCA (site TAGAACACTTG)	0.985
TAGAAGACATGGACCGGTTTTCCCGGTAATCCGTATTTGCA (site TAGAAGACTTG)	2.51
TAGAAGACATGGACCGGTTTTCCCGGTAATCCGTATTTGCA (site TAGAATACTTG)	0
TAGAATACATGGACCGGTTTTCCCGGTAATCCGTATTTGCG (site TAGAATACTAG)	0

Sequence	recombinant UMI read abundance (log10)
TAGAATACATGGACCGGTTTTCCCGGTAATCCGTATTTGCG (site TAGAATACTCG)	2.06
TAGAATACATGGACCGGTTTTCCCGGTAATCCGTATTTGCG (site TAGAATACTGG)	0
TAGAATACATGGACCGGTTTTCCCGGTAATCCGTATTTGCG (site TAGAATACTTG)	0.239
TAGAATTCATGGACCGGTTTTCCCGGTAATCCGTATTTGTA (site TAGAATTCTTA)	1.67
TAGACTACATGGACCGGTTTTCCCGGTAATCCGTATTTGCA (site TAGAATACTTG)	0.379
TAGACTACATGGACCGGTTTTCCCGGTAATCCGTATTTGCA (site TAGACTACTTG)	1.62
TAGACTACATGGACCGGTTTTCCCGGTAATCCGTATTTGCA (site TAGAGTACTTG)	0.0124
TAGACTACATGGACCGGTTTTCCCGGTAATCCGTATTTGCA (site TAGATTACTTG)	0.502
TAGATTACATGGACCGGTTTTCCCGGTAATCCGTATTTGTA (site TAGATTACTTA)	0.528
TAGCAAGCATGGACCGGTTTTCCCGGTAATCCGTATTTGAA (site TAGCAAGCTTT)	1.45
TAGCAAGCATGGACCGGTTTTCCCGGTAATCCGTATTTGAA (site TAGCCAGCTTT)	0.0116
TAGCAAGCATGGACCGGTTTTCCCGGTAATCCGTATTTGAA (site TAGCGAGCTTT)	0.00665
TAGCAAGCATGGACCGGTTTTCCCGGTAATCCGTATTTGAA (site TAGCTAGCTTT)	0.00716
TAGCATACATGGACCGGTTTTCCCGGTAATCCGTATTTGCA (site TAGAATACTTG)	0
TAGCATACATGGACCGGTTTTCCCGGTAATCCGTATTTGCA (site TAGCATACTTG)	1.62
TAGCATACATGGACCGGTTTTCCCGGTAATCCGTATTTGCA (site TAGGATACTTG)	0
TAGCATACATGGACCGGTTTTCCCGGTAATCCGTATTTGCA (site TAGTATACTTG)	0.507
TAGCATTCATGGACCGGTTTTCCCGGTAATCCGTATTTGGT (site TAGCATTCTAC)	1.23
TAGCATTCATGGACCGGTTTTCCCGGTAATCCGTATTTGGT (site TAGCCTTCTAC)	0.00694
TAGCATTCATGGACCGGTTTTCCCGGTAATCCGTATTTGGT (site TAGCGTTCTAC)	0.0097
TAGCATTCATGGACCGGTTTTCCCGGTAATCCGTATTTGGT (site TAGCTTTCTAC)	0
TAGCCATCATGGACCGGTTTTCCCGGTAATCCGTATTTGGT (site TAGCCATCTAC)	0.74
TAGCCATCATGGACCGGTTTTCCCGGTAATCCGTATTTGGT (site TAGCCCTCTAC)	0.0197
TAGCCATCATGGACCGGTTTTCCCGGTAATCCGTATTTGGT (site TAGCCGTCTAC)	0.0186
TAGCCATCATGGACCGGTTTTCCCGGTAATCCGTATTTGGT (site TAGCCTTCTAC)	0.0124

Sequence	recombinant UMI read abundance (log10)
TAGCCCTCATGGACCGGTTTTCCCGGTAATCCGTATTTGGT (site TAGCCATCTAC)	0.00538
TAGCCCTCATGGACCGGTTTTCCCGGTAATCCGTATTTGGT (site TAGCCCTCTAC)	1.12
TAGCCCTCATGGACCGGTTTTCCCGGTAATCCGTATTTGGT (site TAGCCGTCTAC)	0.0119
TAGCCCTCATGGACCGGTTTTCCCGGTAATCCGTATTTGGT (site TAGCCTTCTAC)	0
TAGCCGACATGGACCGGTTTTCCCGGTAATCCGTATTTGAC (site TAGCCGACTGT)	2.63
TAGCCGGCATGGACCGGTTTTCCCGGTAATCCGTATTTGGC (site TAGCCGGCTGC)	1.62
TAGCCGGCATGGACCGGTTTTCCCGGTAATCCGTATTTGGC (site TCGCCGGCTGC)	0
TAGCCGGCATGGACCGGTTTTCCCGGTAATCCGTATTTGGC (site TGGCCGGCTGC)	0
TAGCCGGCATGGACCGGTTTTCCCGGTAATCCGTATTTGGC (site TTGCCGGCTGC)	0
TAGCCTCCATGGACCGGTTTTCCCGGTAATCCGTATTTGTT (site TAGCCTCCTAA)	0.0845
TAGCCTGCATGGACCGGTTTTCCCGGTAATCCGTATTTGAT (site TAGCCTGCTAT)	0.0647
TAGCGCGCATGGACCGGTTTTCCCGGTAATCCGTATTTGTC (site TAGCGCGCTGA)	2.77
TAGCTAGCATGGACCGGTTTTCCCGGTAATCCGTATTTGAC (site TAGCTAGCTAT)	0.556
TAGCTAGCATGGACCGGTTTTCCCGGTAATCCGTATTTGAC (site TAGCTAGCTCT)	0
TAGCTAGCATGGACCGGTTTTCCCGGTAATCCGTATTTGAC (site TAGCTAGCTGT)	2.34
TAGCTAGCATGGACCGGTTTTCCCGGTAATCCGTATTTGAC (site TAGCTAGCTTT)	0.388
TAGCTAGCATGGACCGGTTTTCCCGGTAATCCGTATTTGAG (site TAGCTAGCTAT)	0.457
TAGCTAGCATGGACCGGTTTTCCCGGTAATCCGTATTTGAG (site TAGCTAGCTCT)	0.921
TAGCTAGCATGGACCGGTTTTCCCGGTAATCCGTATTTGAG (site TAGCTAGCTGT)	0
TAGCTAGCATGGACCGGTTTTCCCGGTAATCCGTATTTGAG (site TAGCTAGCTTT)	0.014
TAGCTAGCATGGACCGGTTTTCCCGGTAATCCGTATTTGGA (site TAGCTAGCTTA)	0.347
TAGCTAGCATGGACCGGTTTTCCCGGTAATCCGTATTTGGA (site TAGCTAGCTTC)	0.303
TAGCTAGCATGGACCGGTTTTCCCGGTAATCCGTATTTGGA (site TAGCTAGCTTG)	0.447
TAGCTAGCATGGACCGGTTTTCCCGGTAATCCGTATTTGGA (site TAGCTAGCTTT)	0.866
TAGCTCACATGGACCGGTTTTCCCGGTAATCCGTATTTGGC (site TAGCTCACTGC)	1.5
